Measurements as given in US12251422B2, “Compositions and methods for treating neurological and other disorders” (Rush University Medical Center, priority 2018, dated 2025).

What was measured:
[1] = target: T1, association between TLR2 and MyD88 (Mus musculus, UniProt Q9QUN7); test: MyD88 immunoprecipitation / TLR2 western blot in BV-2 microglial cells; type: cell-based; details: BV-2 cells, peptides preincubated 1 h, 1 μM fibrillar Aβ1-42 for 1 h, serum-free
T1 construct: disrupt the physical association between endogenous TLR2 and MyD88; endogenous in cells; host or cells: BV-2 microglial cells
T1 sequence (Q9QUN7 25-784): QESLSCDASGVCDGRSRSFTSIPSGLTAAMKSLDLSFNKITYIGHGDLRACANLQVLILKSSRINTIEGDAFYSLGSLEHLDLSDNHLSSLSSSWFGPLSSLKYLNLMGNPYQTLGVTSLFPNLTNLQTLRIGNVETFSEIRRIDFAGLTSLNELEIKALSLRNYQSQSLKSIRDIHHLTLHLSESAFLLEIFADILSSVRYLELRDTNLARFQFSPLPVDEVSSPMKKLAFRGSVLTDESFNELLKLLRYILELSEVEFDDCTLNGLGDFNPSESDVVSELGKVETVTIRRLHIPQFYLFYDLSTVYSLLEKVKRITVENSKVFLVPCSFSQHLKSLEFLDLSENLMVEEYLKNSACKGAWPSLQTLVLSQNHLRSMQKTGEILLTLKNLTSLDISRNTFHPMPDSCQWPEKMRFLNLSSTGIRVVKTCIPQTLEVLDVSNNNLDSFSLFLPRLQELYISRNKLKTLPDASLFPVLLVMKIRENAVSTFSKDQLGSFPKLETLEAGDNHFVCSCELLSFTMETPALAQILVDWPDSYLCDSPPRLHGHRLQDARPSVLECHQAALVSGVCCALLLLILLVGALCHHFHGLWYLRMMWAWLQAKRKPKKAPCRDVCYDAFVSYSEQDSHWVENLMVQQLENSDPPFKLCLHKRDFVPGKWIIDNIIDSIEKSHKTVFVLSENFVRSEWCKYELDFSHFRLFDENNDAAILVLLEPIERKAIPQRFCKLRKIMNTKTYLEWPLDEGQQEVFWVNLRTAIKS
Experimental: FIG. 3(A-L). Selective disruption of TLR2 and MyD88 interaction by wtTIDM. In silico analyses of interactions of wtTIDM with TLR1, TLR4, TLR5, TLR6, TLR7, and TLR9. A rigid body interaction analyses were performed in pydock in silico analysis tool. […] G) BV-2 microglial cells preincubated with WtTIDM and mTIDM peptides for 1 h were stimulated with 1 μM fibrillar Aβ1-42 under serum-free condition. After 1 h, cellular extracts were immunoprecipitated with anti-MyD88 antibody followed by western blot of immunoprecipitates for TLR2. As control, cellular extracts were immunoprecipitated with normal IgG. Input was also immunoblotted with TLR2 and MyD88. H) Bands were scanned and values (TLR2/Input) presented as relative to control (n=2 replicates/condition in 3 independent experiments). Results were analyzed by two-sample t-tests. I) BV-2 microglial cells preincubated with wtTIDM and mTIDM peptides for 1 h were stimulated with LPS under serum-free condition. After 1 h, cellular extracts were immunoprecipitated with anti-MyD88 antibody followed by western blot of immunoprecipitates for TLR4. As control, cellular extracts were immunoprecipitated with normal IgG. Input was also immunoblotted with TLR4 and My D88. […] Results were analyzed by two-sample t-tests. […] Results were analyzed by two-sample t-tests.

[2] = tested on: p65 and p50; test: Nuclear translocation of p65 and p50 in BV-2 microglial cells (Western blot); type: cell-based; details: 10 μM peptide 1 h, 1 μM fibrillar Aβ1-42
Experimental: FIG. 15 (A-F). Effect of wtTIDM peptide on fibrillar Aβ- and LPS-induced nuclear translocation of p65 and p50 in microglial cells. BV-2 microglial cells preincubated with 10 μM wtTIDM peptide for 1 h were stimulated with either 1 μM fibrillar Aβ1-42 (A-C) or 1 μg/ml LPS (D-F) under serum-free condition. At different minute intervals, levels of p65 and p50 (A, fibrillar Aβ; D, LPS) were monitored in nuclear extracts by Western blot. Histone H3 was run as a loading control. Bands were scanned and values of p65/H3 (B & E) and p50/H3 (C & F) are presented as relative to control (n=2 replicates/condition in 3 independent experiments). ap<0.05, bp<0.001 vs control; cp<0.01 vs 30 min stimulation; dp<0.05 vs 15 min stimulation; NS, not significant by two-sample t-tests.

[3] = tested on: 5×FAD Tg mice; test: Amyloid plaque / Aβ load in 5×FAD Tg mice; type: in vivo, mouse; details: 0.1 mg/kg body wt/2 d intranasal, 30 d
Experimental: FIG. 5 (A-Q). […] Actin was run as loading control. […] M) Hippocampal sections were immunolabeled with 82E1 mAb. […] Arrowhead indicates 4 kDa Aβ band.
FIG. 20 (A-B). Intranasal delivery of wtTIDM, but not mTIDM, peptide lowers the burden of amyloid plaques in the hippocampus of Tg mice. […] Actin was run as loading control. […] Results were analyzed by two-sample t-tests.
FIG. 21 (A-F). Intranasal delivery of wtTIDM, but not mTIDM, peptide reduces the levels of Aβ1-40 and Aβ1-42 in serum and hippocampus of Tg mice. […] After 30 d of treatment. ELISA quantification of Aβ1-40 (A, C & E) and Aβ1-42 (B, D & F) was performed in serum (A & B) and TBS (C & D) and (TBS+Triton X-100) (E & F) extracted hippocampal tissues. Six mice (n=6 per group) were used in two independent experiments. ap<0.01 & cp<0.001 versus non-Tg; bp<0.01 & dp<0.001 versus Tg by two-sample t-tests.
B6SJL-Tg (APPSwFlLon,PSEN1*M146L*L286V) 6799Vas/J transgenic (5×FAD or termed here as Tg) mice were purchased from Jackson Laboratories (Bar Harbor, ME). […] Briefly, TIDM peptides were dissolved in 5 μl normal saline, mice were hold in supine position and saline was delivered into one nostril using a pipetman.
Hippocampal tissues were homogenized in TBS, pelleted for 30 min×150,000 g. […]

[4] = target: T2, interaction between newly-formed cTLR2 and MyD88 (Mus musculus, UniProt Q9QUN7); test: MyD88 immunoprecipitation / c-Myc western blot in BV-2 cells transduced with pLenti-cMyc-cTlr2; type: cell-based; details: transduced BV-2 cells, fibrillar Aβ1-42 for 1 h
T2 construct: The cTLR2 (640-784 amino acids) tagged with c-myc was cloned in lenti vector; expressed in transfected cells; host or cells: BV-2 microglial cells transduced with pLenti-cMyc-cTlr2 lentivirions
T2 sequence (Q9QUN7 640-784): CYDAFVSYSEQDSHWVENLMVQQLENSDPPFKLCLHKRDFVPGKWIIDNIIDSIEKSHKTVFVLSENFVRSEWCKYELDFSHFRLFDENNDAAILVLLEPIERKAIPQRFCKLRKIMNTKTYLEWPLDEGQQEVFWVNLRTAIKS

## CC[C@H](C)[C@H](NC(=O)[C@H](CCCCN)NC(=O)[C@@H](NC(=O)[C@H](CCC(N)=O)NC(=O)[C@H](CCCNC(=N)N)NC(=O)[C@@H](N)CC(=O)O)[C@@H](C)CC)C(=O)N[C@@H](Cc1c[nH]c2ccccc12)C(=O)N[C@@H](Cc1ccccc1)C(=O)N[C@@H](CCC(N)=O)C(=O)N[C@@H](CC(N)=O)C(=O)N[C@@H](CCCNC(=N)N)C(=O)N[C@@H](CCCNC(=N)N)C(=O)N[C@@H](CCSC)C(=O)N[C@@H](CCCCN)C(=O)N[C@@H](Cc1c[nH]c2ccccc12)C(=O)N[C@@H](CCCCN)C(=O)N[C@@H](CCCCN)C(=O)N1CCC[C@H]1C(=O)NCC(=O)N[C@@H](C)C(=O)N[C@@H](Cc1c[nH]cn1)C(=O)N[C@@H](CCC(N)=O)C(=O)N[C@@H](CCCCN)C(=O)O [wtTIDM, drqikiwfqnrrmkwkkPGAHQK]
[1]
  inhibition of fibrillar Aβ1-42-increased association between TLR2 and MyD88: inhibited
[2]
  inhibition of nuclear translocation of p65 and p50, fibrillar Aβ1-42: inhibited
[3]
  Aβ (plaques, Western blot, ELISA of Aβ1-40 and Aβ1-42 in serum and hippocampus): significant decrease
[4]
  inhibition of interaction between newly-formed cTLR2 and MyD88: inhibited
